Experimental data: ChEMBL document CHEMBL5346964, “Discovery of LNP1892: A Precision Calcimimetic for the Treatment of Secondary Hyperparathyroidism” (J Med Chem, 2023)

Legend:
hERG = hERG (Homo sapiens, UniProt Q12809); assay: Inhibition of hERG at 10 uM relative to control; format: toxicity
[1] = Microsomal stability in rat liver microsomes assessed as parent compound remaining at 1 uM measured upto 30 mins in presence of NADPH by LC-MS/MS analysis; format: ADME, Microsome; settings: read-out: Stability
[2] = Microsomal stability in human liver microsomes assessed as parent compound remaining at 1 uM measured upto 30 mins in presence of NADPH by LC-MS/MS analysis; format: ADME, Microsome; settings: liver microsomes, read-out: Stability
[3] = Volume of distribution at steady state in Sprague-Dawley rat at 1 mg/kg, iv measured upto 24 hrs by LC-MS/MS analysis; format: ADME, organism-based; settings: in vivo, read-out: Vdss
[4] = Tmax in Sprague-Dawley rat at 10 mg/kg, po administered as solution measured upto 24 hrs by LC-MS/MS analysis; format: ADME, organism-based; settings: in vivo
[5] = AUClast in Sprague-Dawley rat at 10 mg/kg, po administered as solution measured upto 24 hrs by LC-MS/MS analysis; format: ADME, organism-based; design: dose 10 mg/kg, time < 24 hrs, route po; settings: in vivo
[6] = Effect on parathyroid hormone in overnight fasted Sprague-Dawley rat assessed as reduction in plasma PTH level at 10 mg/kg, po measured after 4 hrs of post treatment by sandwich ELISA analysis (reference value: 18%); format: functional; design: scale not given: the % may be the effect or the level left
[7] = Effect on parathyroid hormone in overnight fasted adenine diet-induced chronic kidney disease Wistar rat model plasma assessed as reduction in PTH level at 1 mg/kg, po measured after 1 hrs of post treatment by sandwich ELISA analysis; format: functional; design: scale not given: the % may be the effect or the level left
Rattus norvegicus [8] = assay: Acute effect on parathyroid hormone in overnight fasted adenine diet-induced chronic kidney disease Wistar rat model assessed as reduction in plasma PTH level at 1 mg/kg, po measured after 2 hrs of post treatment by sandwich ELISA analysis; format: functional; design: scale not given: the % may be the effect or the level left
Rattus norvegicus [9] = assay: Subchronic effect on parathyroid hormone in overnight fasted adenine diet-induced chronic kidney disease Wistar rat model plasma assessed as reduction in plasma PTH level at 0.1 mg/kg, po qd measured after 27 days of post treatment by sandwich ELISA analysis; format: functional; design: scale not given: the % may be the effect or the level left; settings: time 27 day
Rattus norvegicus [10] = assay: Subchronic effect on parathyroid hormone in overnight fasted adenine diet-induced chronic kidney disease Wistar rat model plasma assessed as reduction in plasma PTH level at 0.3 mg/kg, po qd measured after 27 days of post treatment by sandwich ELISA analysis; format: functional; design: scale not given: the % may be the effect or the level left; settings: time 27 day
[11] = Cmax in Sprague-Dawley rat at 300 mg/kg; format: ADME, organism-based; design: dose 300 mg/kg; settings: in vivo
[12] = Metabolic stability in rat liver cytosol measured upto 60 mins by LC-MS/MS method; format: ADME, subcellular; settings: read-out: Stability
[13] = Metabolic stability in dog liver cytosol measured upto 60 mins by LC-MS/MS method; format: ADME, subcellular, Canis lupus familiaris; settings: read-out: Stability
[14] = Stability in human plasma measured up to 4 hrs by LC-MS/MS method; format: ADME, cell-free; settings: read-out: Stability
[15] = Protein binding in mouse plasma incubated for 16 hrs under shaking condition by rapid equilibrium dialysis based LC-MS/MS method; format: ADME, cell-free; settings: read-out: PPB
CYP1A2 = biological target: T1, CYP1A2 (Homo sapiens, UniProt P05177); assay: Inhibition of CYP1A2 in human liver microsomes at 10 uM preincubated for 5 mins followed by NADPH addition by LC-MS/MS analysis relative to control; format: ADME, Microsome
T1 sequence (P05177 whole entry): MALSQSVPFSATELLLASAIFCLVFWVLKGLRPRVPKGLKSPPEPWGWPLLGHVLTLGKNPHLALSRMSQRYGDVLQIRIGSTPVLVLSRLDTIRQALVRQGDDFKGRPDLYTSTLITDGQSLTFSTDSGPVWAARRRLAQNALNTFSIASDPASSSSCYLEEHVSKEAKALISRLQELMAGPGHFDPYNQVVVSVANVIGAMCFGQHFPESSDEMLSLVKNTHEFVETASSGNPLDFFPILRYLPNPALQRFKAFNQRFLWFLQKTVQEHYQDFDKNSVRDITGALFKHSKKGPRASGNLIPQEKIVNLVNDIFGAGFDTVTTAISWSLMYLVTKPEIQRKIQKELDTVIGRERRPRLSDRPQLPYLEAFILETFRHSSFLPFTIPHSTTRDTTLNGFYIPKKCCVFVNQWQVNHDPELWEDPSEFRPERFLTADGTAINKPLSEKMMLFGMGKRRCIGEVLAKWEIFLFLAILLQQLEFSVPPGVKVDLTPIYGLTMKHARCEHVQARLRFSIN

CYP2C19 = CYP2C19 (Homo sapiens, UniProt P33261); assay: Inhibition of CYP2C19 in human liver microsomes at 10 uM preincubated for 5 mins followed by NADPH addition by LC-MS/MS analysis relative to control; format: ADME, Microsome
Sequence of CYP2C19 (P33261 whole entry): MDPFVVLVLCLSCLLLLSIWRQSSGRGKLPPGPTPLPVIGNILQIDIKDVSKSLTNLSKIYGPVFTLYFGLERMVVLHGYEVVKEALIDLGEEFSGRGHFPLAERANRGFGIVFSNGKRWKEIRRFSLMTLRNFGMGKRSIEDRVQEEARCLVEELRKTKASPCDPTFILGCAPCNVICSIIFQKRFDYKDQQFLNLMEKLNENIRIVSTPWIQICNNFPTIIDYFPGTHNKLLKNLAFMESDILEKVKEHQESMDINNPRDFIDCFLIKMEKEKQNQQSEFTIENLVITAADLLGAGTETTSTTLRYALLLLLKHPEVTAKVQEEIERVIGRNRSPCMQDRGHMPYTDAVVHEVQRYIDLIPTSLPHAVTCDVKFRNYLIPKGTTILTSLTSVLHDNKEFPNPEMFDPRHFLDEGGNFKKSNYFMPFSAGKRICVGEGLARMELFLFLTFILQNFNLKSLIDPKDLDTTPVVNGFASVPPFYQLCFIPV

[16] = Kinetic solubility of compound in FaSSIF upto 500 uM measured after 16 hrs under shaking condition by UV-visible method; format: physicochemical; settings: read-out: Kinetic_solubility
[17] = Kinetic solubility of compound in 0.1N HCL upto 500 uM measured after 16 hrs under shaking condition by UV-visible method; format: physicochemical; settings: read-out: Kinetic_solubility
[18] = Kinetic solubility of compound in SGF upto 500 uM measured after 16 hrs under shaking condition by UV-visible method; format: physicochemical; settings: read-out: Kinetic_solubility
[19] = Chemical stability of the compound at pH 2 measured after 0.5 to 4 hrs; format: physicochemical; settings: buffer, time 0.5-4 hrs
[20] = Chemical stability of the compound in FeSSIF measured after 0.5 to 4 hrs; format: physicochemical; settings: simulated gi fluid; time 0.5-4 hrs
[21] = Chemical stability of the compound in SIF measured after 0.5 to 4 hrs; format: physicochemical; settings: simulated gi fluid; time 0.5-4 hrs
[22] = Oral bioavailability in Sprague-Dawley rat at 10 mg/kg measured upto 24 hrs by LC/MS-MS analysis; format: ADME, organism-based; settings: in vivo
[23] = Oral bioavailability in Beagle dog at 5 mg/kg measured upto 24 hrs by LC/MS-MS analysis; format: ADME, organism-based, Canis lupus familiaris; settings: in vivo
[24] = Oral bioavailability in cynomolgus monkey at 5 mg/kg measured upto 24 hrs by LC/MS-MS analysis; format: ADME, organism-based, Macaca fascicularis; settings: in vivo
[25] = Plasma clearance in Sprague-Dawley rat at 1 mg/kg, iv measured upto 24 hrs by LC/MS-MS analysis; format: ADME, organism-based
[26] = AUC in BALB/c mouse at 10 mg/kg, po measured upto 24 hrs by LC/MS-MS analysis; format: ADME, organism-based; design: time < 24 hrs, dose 10 mg/kg, route po; settings: in vivo
[27] = AUC in Sprague-Dawley rat at 10 mg/kg, po measured upto 24 hrs by LC/MS-MS analysis; format: ADME, organism-based; design: time < 24 hrs, dose 10 mg/kg, route po; settings: in vivo
[28] = Drug excretion in rat assessed as drug recovery in urine at 10 mg/kg, po; format: ADME, organism-based; settings: read-out: Drug recovery
[29] = Drug excretion in rat assessed as drug recovery in feces at 10 mg/kg, po; format: ADME, organism-based; settings: faeces, read-out: Drug recovery
[30] = Ratio of drug concentration in brain to plasma in Sprague-Dawley rat at 10 mg/kg, po measured upto 24 hrs by LC-MS/MS analysis; format: ADME, organism-based; settings: read-out: BPR
[31] = AUC(0 to t) in rat at 25 mg/kg per day, po via gavage administered for 13 weeks; format: ADME, organism-based; design: dose 25 mg/kg, time 13 weeks, route po; settings: in vivo
[32] = Toxicity in mouse assessed as NOAEL; settings: in vivo
[33] = Cmax in human at 25 mg/kg, po administered as multiple dose on day 8; format: ADME, organism-based; design: dose 25 mg/kg, route po; settings: in vivo
[34] = biological target: Mu-type opioid receptor (Homo sapiens) (UniProt P35372); assay: Inhibition of human recombinant MOP receptor at 10 uM relative to control
Sequence of Mu-type opioid receptor (Homo sapiens) (P35372 whole entry): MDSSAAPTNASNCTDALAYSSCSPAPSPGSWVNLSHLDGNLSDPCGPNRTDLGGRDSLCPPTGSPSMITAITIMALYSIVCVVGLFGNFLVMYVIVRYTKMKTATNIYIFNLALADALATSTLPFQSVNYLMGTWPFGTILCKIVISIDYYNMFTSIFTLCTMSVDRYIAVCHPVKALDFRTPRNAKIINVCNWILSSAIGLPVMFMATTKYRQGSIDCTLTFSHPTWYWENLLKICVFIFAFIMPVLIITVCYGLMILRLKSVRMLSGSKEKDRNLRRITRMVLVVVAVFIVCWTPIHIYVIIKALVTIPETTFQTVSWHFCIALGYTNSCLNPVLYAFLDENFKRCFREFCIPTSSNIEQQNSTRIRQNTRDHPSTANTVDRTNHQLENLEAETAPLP

Sequence of hERG (Q12809 whole entry): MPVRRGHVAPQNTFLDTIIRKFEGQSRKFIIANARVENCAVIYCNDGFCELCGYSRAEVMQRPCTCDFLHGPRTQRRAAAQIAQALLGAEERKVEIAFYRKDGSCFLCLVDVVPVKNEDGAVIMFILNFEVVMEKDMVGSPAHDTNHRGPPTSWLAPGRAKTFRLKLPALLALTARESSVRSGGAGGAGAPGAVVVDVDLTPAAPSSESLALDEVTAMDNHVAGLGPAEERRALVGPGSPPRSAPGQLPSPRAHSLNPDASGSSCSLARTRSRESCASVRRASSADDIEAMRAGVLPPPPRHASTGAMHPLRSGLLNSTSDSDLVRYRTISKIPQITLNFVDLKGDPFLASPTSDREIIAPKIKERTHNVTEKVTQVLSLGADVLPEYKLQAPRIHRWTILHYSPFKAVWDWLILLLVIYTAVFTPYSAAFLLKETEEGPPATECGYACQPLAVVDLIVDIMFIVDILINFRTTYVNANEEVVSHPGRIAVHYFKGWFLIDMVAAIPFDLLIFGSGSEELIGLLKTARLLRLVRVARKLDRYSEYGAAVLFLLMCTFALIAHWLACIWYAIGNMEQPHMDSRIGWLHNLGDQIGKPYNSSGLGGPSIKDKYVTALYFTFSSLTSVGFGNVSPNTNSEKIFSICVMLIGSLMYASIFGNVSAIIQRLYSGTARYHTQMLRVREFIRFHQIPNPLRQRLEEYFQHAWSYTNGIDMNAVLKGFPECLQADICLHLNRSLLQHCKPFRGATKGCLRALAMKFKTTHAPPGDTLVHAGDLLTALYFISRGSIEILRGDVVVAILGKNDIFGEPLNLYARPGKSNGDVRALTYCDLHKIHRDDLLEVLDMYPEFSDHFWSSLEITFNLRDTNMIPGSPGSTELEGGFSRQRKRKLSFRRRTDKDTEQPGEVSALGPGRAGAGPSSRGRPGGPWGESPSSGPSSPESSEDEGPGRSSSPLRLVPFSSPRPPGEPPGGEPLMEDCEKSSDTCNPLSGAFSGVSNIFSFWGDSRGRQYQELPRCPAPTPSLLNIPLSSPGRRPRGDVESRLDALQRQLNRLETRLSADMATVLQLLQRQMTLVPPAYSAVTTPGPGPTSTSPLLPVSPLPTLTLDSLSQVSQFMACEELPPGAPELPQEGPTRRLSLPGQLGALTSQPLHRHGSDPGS

Question: With Cc1ccc([C@@H]2C[C@H](CN[C@H](C)c3cccc4ccccc34)Oc3ccccc32)cc1C(=O)O.Cl as the molecule, how does the inhibition at 10 µM (hERG) read?
Answer: 4%

Question: And the remaining at 0.5 h, 1 µM [1]?
Answer: 77%

Question: What about the remaining at 0.5 h, 1 µM [2] of the same molecule?
Answer: 73%

Question: And the Vd [3]?
Answer: 1 L/kg

Question: And the Tmax [4]?
Answer: 36 min

Question: What about the AUC(0-t) at 24 h [5] of the same molecule?
Answer: 71 µM·h

Question: What about the Activity [6] of the same molecule?
Answer: 88%

Question: What about the Activity [7] of the same molecule?
Answer: 95%

Question: And the Activity (Rattus norvegicus [8])?
Answer: 95%

Question: What about the Activity (Rattus norvegicus [9]) of the same molecule?
Answer: 62%

Question: What about the Activity (Rattus norvegicus [10]) of the same molecule?
Answer: 73%

Question: What about the Cmax [11] of the same molecule?
Answer: 72 µM

Question: And the remaining at 1 h [12]?
Answer: > 80%

Question: What about the remaining at 1 h [13] of the same molecule?
Answer: > 80%

Question: What about the remaining at 4 h [14] of the same molecule?
Answer: > 80%

Question: What about the fraction unbound at 16 h [15] of the same molecule?
Answer: < 0.01

Question: And the inhibition at 10 µM (CYP1A2)?
Answer: 0%

Question: And the inhibition at 10 µM (CYP2C19)?
Answer: 7%

Question: What about the solubility kinetic at 16 h, 500 µM [16] of the same molecule?
Answer: > 300 µM

Question: And the solubility kinetic at 16 h, 500 µM [17]?
Answer: > 200 µM

Question: And the solubility kinetic at 16 h, 500 µM [18]?
Answer: > 200 µM

Question: What about the Stability [19] of the same molecule?
Answer: Stable

Question: And the Stability [20]?
Answer: Stable

Question: What about the Stability [21] of the same molecule?
Answer: Stable

Question: What about the bioavailability [22] of the same molecule?
Answer: 99%

Question: And the bioavailability [23]?
Answer: 79%

Question: And the bioavailability [24]?
Answer: 100%

Question: And the clearance [25]?
Answer: 4 mL/min/kg

Question: What about the AUC at 24 h [26] of the same molecule?
Answer: 171 µM·h

Question: And the AUC at 24 h [27]?
Answer: 71 µM·h

Question: What about the dose excreted [28] of the same molecule?
Answer: < 1%

Question: And the dose excreted [29]?
Answer: 3%

Question: What about the Kp at 24 h [30] of the same molecule?
Answer: 0.2

Question: What about the AUC(0-t) at 2184 h [31] of the same molecule?
Answer: 98900 ng·h/mL

Question: What about the NOAEL [32] of the same molecule?
Answer: 50 mg/kg/day

Question: And the Cmax [33]?
Answer: 463 ng/mL

Question: What about the inhibition [34] of the same molecule?
Answer: > 50%
